Where a SMILES comes first, the peptide text is derived from it.
Tests used:
GST-PDK1 = molecular target: T1, GST-PDK1 (Homo sapiens, UniProt O15530); assay: Thermal denaturation of PDK1 (TM50); format: biochemical; conditions: wild type GST-PDK1; heated 2 min
T1 construct: Full length PDK1 (residues 1-556); made in house; host or cells: 293 cells
T1 sequence (O15530 1-556): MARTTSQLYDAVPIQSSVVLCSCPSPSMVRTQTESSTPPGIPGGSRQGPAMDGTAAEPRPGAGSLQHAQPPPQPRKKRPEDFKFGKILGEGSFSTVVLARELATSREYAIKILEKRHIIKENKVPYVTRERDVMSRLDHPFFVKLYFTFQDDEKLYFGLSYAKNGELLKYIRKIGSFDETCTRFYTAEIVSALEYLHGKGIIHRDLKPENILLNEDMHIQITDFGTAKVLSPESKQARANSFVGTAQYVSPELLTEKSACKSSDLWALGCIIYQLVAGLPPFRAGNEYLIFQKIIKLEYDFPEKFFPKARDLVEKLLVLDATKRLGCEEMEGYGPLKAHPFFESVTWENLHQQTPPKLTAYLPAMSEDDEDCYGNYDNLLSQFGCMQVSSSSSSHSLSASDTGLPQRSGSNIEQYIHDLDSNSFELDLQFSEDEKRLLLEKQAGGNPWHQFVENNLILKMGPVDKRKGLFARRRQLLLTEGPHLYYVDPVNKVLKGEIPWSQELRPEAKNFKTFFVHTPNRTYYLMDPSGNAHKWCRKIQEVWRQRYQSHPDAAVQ
Text: A further aspect of the invention provides the use of an interacting polypeptide as defined above, for example comprising the amino acid sequence Phe/Tyr-Xaa-Xaa-Phe/Tyr or an interacting compound of the invention in a method of stabilising a protein kinase having a hydrophobic pocket in the position equivalent to the hydrophobic pocket of Protein Kinase A (PKA) that is defined by residues including Lys76, Leu116, Val80 and/or Lys111 of full-length mouse PKA, wherein the protein kinase is exposed to the compound or polypeptide. Stabilisation may be measured by measuring the TM50 value. The TM50 value is the temperature at which heating for two minutes produces a 50% reduction in protein kinase activity (measured using any appropriate substrate) compared with the protein kinase activity before such heating, as described in Example 2. An increase in the TM50 value, for example by at least about 1, 2, 3, 4, 5, 6, 7, 8, 9, 10 or 15° C. indicates stabilisation.
FIG. 12. PDK1 is activated and stabilised through its interaction with PIFtide. (A) GST-PDK1 activity was measured in the presence of increasing concentrations of wild type (wt) PIFtide (closed circles) or a mutant D978A PIFtide (open circles) using the synthetic peptide substrate termed T308tide, as described in Material and Methods. The data was fitted to a hyperbola using the Kaleidagraph™ software. […]

Myc-PDK1 = molecular target: T2, Myc-PDK1 (Homo sapiens, UniProt O15530); assay: Glutathione-Sepharose pull-down of Myc-PDK1 with GST-PIF from 293 cells; format: binding
T2 construct: expressed in transfected cells; host or cells: 293 cells
T2 sequence (O15530 1-556): T1 sequence (O15530 1-556)
Protocol: FIG. 9. Effect of mutation of conserved residues in the PIF-binding pocket of PDK1 on the ability to interact with PIF. 293 cells were transiently transfected with DNA constructs expressing GST-PIF and either wild type Myc-PDK1 or the indicated mutants of PDK1. 36 h post transfection the cells were lysed and GST-PIF purified by affinity chromatography on glutathione-Sepharose beads. 2 μg of each protein was electrophoresed on a 10% SDS/polyacrylamide gel and either stained with Coomassie blue (A and E) or immunoblotted using an anti Myc antibody to detect Myc-PDK1 (B and F). To establish that the wild type PDK1 and mutant proteins were expressed at a similar level, 10 μg of total cell lysate was electrophoresed on a 10% SDS/polyacrylamide gel and immunoblotted using anti-Myc antibodies (C and G). Duplicates of each condition are shown. Similar results were obtained in 3 to 5 separate experiments. […]
A pEBG2T plasmid encoding GST fused to the last 77 residues of PRK2 termed GST-PIF (10 μg) and pCMV5 plasmid expressing Myc-PDK1 wild type or the indicated mutants of PDK1 (10 μg), were co-transfected into a 10 cm diameter dish of 293 cells using a modified calcium phosphate method. […] The gels were either stained with Coomassie blue, or analysed by immunoblotting with anti Myc antibodies.

complex with wild type PDK1 (Myc-PDK1) | Molecule | increase of TM50 (GST-PDK1)
 | CC[C@H](C)[C@H](NC(=O)[C@H](Cc1ccc(O)cc1)NC(=O)[C@H](CC(=O)O)NC(=O)[C@H](Cc1ccccc1)NC(=O)[C@H](CC(=O)O)NC(=O)[C@H](CCCNC(=N)N)NC(=O)[C@H](Cc1ccccc1)NC(=O)[C@H](CCSC)NC(=O)[C@H](CCC(=O)O)NC(=O)[C@H](CCC(N)=O)NC(=O)[C@H](CCC(=O)O)NC(=O)[C@H](CCC(=O)O)NC(=O)[C@H](CCC(=O)O)NC(=O)[C@H](CO)NC(=O)[C@H](CC(C)C)NC(=O)[C@@H](NC(=O)[C@H](CCCNC(=N)N)NC(=O)[C@@H]1CCCN1C(=O)[C@H](CCC(=O)O)NC(=O)[C@@H](N)CCCNC(=N)N)[C@@H](C)CC)C(=O)N[C@@H](C)C(=O)N[C@@H](CC(=O)O)C(=O)N[C@@H](Cc1c[nH]c2ccccc12)C(=O)N[C@@H](CS)C(=O)O [PIFtide] (H-REPRILSEEEQEMFRDFDYIADWC-OH; N-terminus and C-terminus assumed) | 8-10 °C
a complex was readily observed | GST-PIF: glutathione S-transferase fused to the last 77 residues of PRK2 (PIF) | 

Reference: US20080009025A1, “PROTEIN KINASE REGULATION” (priority 1999, published 2008)
